18 compounds from patent US5576188A, “Immunological detection of metolachlor” (Ciba-Geigy Corporation, priority 1990, dated 1996) can be followed below.

For experiment [1], the target named is MAb 4082-25-4. As to the kind of experiment: Indirect competitive ELISA (assay A), inhibition of MAb 4082-25-4 binding / cross-reactivity. Further details: species or system BALB/c mouse. The note with it: for I50 (inhibitor concentration for 50% inhibition in the competitive ELISA): MAb 4082-25-4; for Cross-reactivity (metolachlor concentration for 50% inhibition / concentration of metolachlor analogue for 50% inhibition × 100): MAb 4082-25-4, relative to metolachlor. From the text: The percentage cross-reactivity is to be defined within the scope of this invention by the following relation:
(Metolachlor concentration for 50% inhibition/concentration of the metolachlor analogues for 50% inhibition)×100.
A 50% inhibition can be determined, for example, with the aid of a competitive ELISA assay (compare Example 8). This then corresponds, for example, to that antigen concentration which leads to 50% inhibition of antibody binding to the carrier-bound antigen.
8.1: Indirect ELISA (assay A)
Metolachlor is detected by means of a two-stage competitive ELISA test using an enzyme-labelled second antibody.
BSA-conjugated hapten in a 50 mM sodium carbonate buffer (pH 9.6) (200 ng of BSA-conjugated hapten/100 μl of sodium carbonate buffer) is initially adsorbed onto microtitre plates (for example Dynatech, type M 129A) and incubated at a temperature of 4° C. overnight. It has emerged that the sensitivity of the assay can be increased almost 5-fold by reducing the conjugate[BSA/hapten] concentration from 200 ng/100 μl of sodium carbonate buffer to 50 ng/100 μl of sodium carbonate buffer because the coating is improved.
The plates are then washed 5× with PBS buffer which is supplemented with 0.1% (v/v) polysorbate 20 (Tween 20) (PBS-Tween).
The remaining free binding sites on the solid support material are then blocked by adding BSA in the form of a 1% solution. After incubation at 22° C. for two hours the plates are again washed with PBS-Tween (0.1%).
50 μl of the previously purified monoclonal antibodies (0.2 μg/ml) or else of the supernatant of the cell clones (in a dilution of 1:15) are incubated a) with 950 μl of a standard solution which contains an increasing content of metolachlor or metolachlor analogue, b) with metolachlor-containing water samples or c) metolachlor-containing soil extracts. (PBS-Tween is used for all dilutions).
After an incubation time of 1 hour at room temperature (22° C.), 200 μl of the antigen/antibody mixture are added to each well of the microtitre plate, and the entire mixture is incubated for a further hour. The wells are then washed 5× with PBS-Tween (0.1%) and charged with 100 μl/well of goat anti-mouse IgG antibody which is conjugated to alkaline phosphatase (dilution 1:1500) and incubated for a period of 1.5 hours.
After renewed washing, 150 μl/well of the substrate p-nitrophenyl phosphate which is dissolved in 1 mg/ml diethanolamine buffer (1 mM, pH 9.8, supplemented with 0.5 mM MgCl2 ×6H2 O) are added to the wells.
After an incubation time of 2 hours at a temperature of 22° C. it is possible to observe a colour change which is proportional to the amount of antibody which has reacted with the antigen bound to the solid phase. The intensity of the colour reaction which has occurred is determined at a wavelength of 405 nm. The dilutions of the individual samples are chosen so that absorptions in a range between 0.3 and 0.5 are obtained without addition of an inhibitor (Bo). Values of R≤0.005 are found for the controls (without antibody and with undetectable amounts of antigen). All the samples are determined in triplicate.
(§1) For the determination of the amount of metolachlor contained in a sample, initially a calibration plot is constructed (FIG. 1), where B/Bo×100is plotted against the concentration of inhibitor. (Bo represents the absorbance measured without addition of a metolachlor inhibitor to the antibody, and B means the absorbance measured with various concentrations of metolachlor inhibitor). […] The I50 value is calculated using an ENZFITTER (Leatherbarrow, Elsevier-Biosoft) plot calculation program specifically adapted to the present circumstances and based on a logistic plot embracing 4 parameters (Raab GM, 1983). The quantitative determination of metolachlor in samples of soil or water within the scope of the ELISA is also carried out using the ENZFITTER program, with the fitting of the plot being based on standards included on each microtitre plate. […]
On the technique in general: In an ELISA, binding on a coated surface is turned into a signal by an enzyme label.

Experiment [2] concerns MAb 4082-25-4. As to the kind of experiment: Direct competitive ELISA (assay B). It is filed as binding, BALB/c mouse. As to the method: 8.2: Direct ELISA (assay B)
Microtitre plates [Dynatech M 129A] are coated with monoclonal antibodies [for example MAb 4082-25-4; 75 ng/100 μl of 50 mM sodium carbonate buffer, pH 9.6] and incubated at a temperature of 4° C. overnight. The plates are then washed 5 times with 0.1% (v/v) PBS-Tween and subsequently incubated with PBS supplemented with 1% (w/v) BSA for 2 hours in order to block the binding sites which are still free. After renewed washing, 150 μl of a standard solution are added to each of the wells of the microtitre plates which contain increasing amounts of metolachlor in 0.1% (v/v) PBS-Tween. This is followed by incubation at a temperature of 22° C. for 1 hour. […] After incubation at 22° C. in the dark for 2 hours, the absorption of 405 nm is determined.
as §1, with “1983).” for “1983). The quantitative determination of metolachlor in samples of soil or water within the scope of the ELISA is also carried out using the ENZFITTER program, with the fitting of the plot being based on standards included on each microtitre plate.”

`CCc1cccc(C)c1N(C(=O)CO)C(C)COC` (stereo not drawn) [A]: in experiment [1], the “I50 (inhibitor concentration for 50% inhibition in the competitive ELISA)” value stood at 43 ng/mL and the “Cross-reactivity (metolachlor concentration for 50% inhibition / concentration of metolachlor analogue for 50% inhibition × 100)” value was found to be 1.4%. In the same order, the values of `CCc1cccc(CC)c1N(COC)C(=O)CCl` [Alachlor] are more than 1000 ng/mL and less than 0.1%. The like results for `CCc1cccc(C)c1NC(C)COC` (stereo not drawn) [B] were, in that order, more than 1000 ng/mL and less than 0.1%.

For the compound `CCc1cccc(C)c1NC(=O)CCl` [C], in experiment [1], the “I50 (inhibitor concentration for 50% inhibition in the competitive ELISA)” value is more than 1000 ng/mL and the “Cross-reactivity (metolachlor concentration for 50% inhibition / concentration of metolachlor analogue for 50% inhibition × 100)” value is listed as less than 0.1%. Regarding `COC(=O)C(C)Nc1c(C)cccc1C` (stereo not drawn) [Compound I], in experiment [1], the “I50 (inhibitor concentration for 50% inhibition in the competitive ELISA)” value is more than 1000 ng/mL and the “Cross-reactivity (metolachlor concentration for 50% inhibition / concentration of metolachlor analogue for 50% inhibition × 100)” value is reported as less than 0.1%. In the same order, the values of `CCc1cccc(C)c1NC(=O)CO` [D] are more than 1000 ng/mL and less than 0.1%. The like results for `CCc1cccc(C)c1NC(C)CO` (stereo not drawn) [E] were, in that order, more than 1000 ng/mL and less than 0.1%. Regarding `CCc1cccc(C)c1N(C(=O)CO)C(C)CO` (stereo not drawn) [F], in experiment [1], the “I50 (inhibitor concentration for 50% inhibition in the competitive ELISA)” value was more than 1000 ng/mL and the “Cross-reactivity (metolachlor concentration for 50% inhibition / concentration of metolachlor analogue for 50% inhibition × 100)” value is given as less than 0.1%. The like results for `COCC(=O)N(c1c(C)cccc1C)C(C)C(=O)O` (stereo not drawn) [G] were, in that order, more than 1000 ng/mL and less than 0.1%. The like results for `Cc1cccc(C)c1N(C(=O)CO)C(C)C(=O)O` (stereo not drawn) [H] were, in that order, more than 1000 ng/mL and less than 0.1%. Turning to `COCC(=O)Nc1c(C)cccc1C` [J], in experiment [1], the “I50 (inhibitor concentration for 50% inhibition in the competitive ELISA)” value is more than 1000 ng/mL and the “Cross-reactivity (metolachlor concentration for 50% inhibition / concentration of metolachlor analogue for 50% inhibition × 100)” value is less than 0.1%. For `Cc1cccc(C)c1NC(C)C(=O)O` (stereo not drawn) [K], in experiment [1], the “I50 (inhibitor concentration for 50% inhibition in the competitive ELISA)” value is more than 1000 ng/mL and the “Cross-reactivity (metolachlor concentration for 50% inhibition / concentration of metolachlor analogue for 50% inhibition × 100)” value is recorded as less than 0.1%. As to `COCC(=O)N(c1c(C)cccc1C)C(C)C(=O)OC` (stereo not drawn) [L], in experiment [1], the “I50 (inhibitor concentration for 50% inhibition in the competitive ELISA)” value is more than 1000 ng/mL. As for `COCC(=O)N(c1c(C)cccc1CO)C(C)C(=O)OC` (stereo not drawn) [M], in experiment [1], the “I50 (inhibitor concentration for 50% inhibition in the competitive ELISA)” value was more than 1000 ng/mL and the “Cross-reactivity (metolachlor concentration for 50% inhibition / concentration of metolachlor analogue for 50% inhibition × 100)” value is given as less than 0.1%. Consider `CCc1cccc(C)c1N(C(=O)CCl)C(C)COC` (stereo not drawn) [Metolachlor, 2-chloro-6'-ethyl-N-(2-methoxy-1-methyl-ethyl)acet-O-toluidide], for which, in experiment [1], the “I50 (inhibitor concentration for 50% inhibition in the competitive ELISA)” value was 0.6 ng/mL and the “Cross-reactivity (metolachlor concentration for 50% inhibition / concentration of metolachlor analogue for 50% inhibition × 100)” value came out at 100%. In experiment [2], this compound had an I50 of 1.0 ng/mL. In the case of `COC(=O)C(C)N(C(=O)c1ccco1)c1c(C)cccc1C` (stereo not drawn) [N], the “I50 (inhibitor concentration for 50% inhibition in the competitive ELISA)” value in experiment [1] was more than 1000 ng/mL. In the case of `COC(=O)C(C)N(C(=O)c1ccco1)c1c(C)cccc1C` (stereo not drawn) [furalaxyl], the “Cross-reactivity (metolachlor concentration for 50% inhibition / concentration of metolachlor analogue for 50% inhibition × 100)” value in experiment [1] is listed as less than 0.1%. Turning to `COCC(=O)N(c1c(C)cccc1C)C(C)C(=O)OC` (stereo not drawn) [matalaxyl], the “Cross-reactivity (metolachlor concentration for 50% inhibition / concentration of metolachlor analogue for 50% inhibition × 100)” value in experiment [1] is reported as less than 0.1%.
